Tests used:
[1] = 28-day chicken growth study, feed or i.m. injection (Example XII); type: in vivo, chickens
Method: Portions of N-morpholinyl-β-benzoyl-propionamide were admixed with chicken feed at 1 mg/kg and a 2 mg/kg, respectively. Another portion was formulated into an injectable formulation at a concentration of 2% in polyethylene glycol. The N-morpholinyl-β-benzoylpropionamide was then administered to chickens, either by i.m. injection or in feed, over 28-day period. One group of controls received no medication, while another group of controls received Bacitracin MD in its feed at 30 g/ton. Those chickens receiving intramuscular injections were injected once a week with a dosage of either 1 mg/kg or 2 mg/kg, based on body weight. Birds were weighed on days 0, 14 and 28.

[2] = acute toxicity (LD50) in the mouse; type: in vivo; details: for LD50: in vivo
[3] = organ weight variations in the rat after per os treatment; type: in vivo; details: 300 mg/kg per os
[4] = pig growth study, intramuscular injection (Example X); type: in vivo; details: pigs, 1 mg/kg i.m. every seven days
Method: N-morpholinyl-β-benzoylpropionamide (NMBP) was formulated as an injectable product at a concentration of 2% in polyethylene glycol. The formulation was administered to pigs by intramuscular injection at a dosage of 1 mg/kg, once every seven days. Pigs averaged 52.66 kg at initiation and were terminated at 90.8 kg. Control animals received no injections.

[5] = battery study in chickens (Example XVI); type: in vivo; details: for Mortality: unmedicated 1.1
Method: A battery study was conducted in which N-morpholinyl-β-benzoyl-propionamide was administered to chickens in their feed at levels at 2.5 ppm and 5.0 ppm. The control group was unmedicated. Each medicated treatment had 10 replications of 8 birds per replication, with non-medicated controls having 20 replications of 8 birds per replication. Birds were weighed to determine weight gain and feed-to-gain ratio on days 7, 14 and 21.

[6] = rabbit, in vivo, ip, 100 mg/kg
[7] = 21-day battery study in chickens (Example XIII); type: in vivo
Method: N-morpholinyl-β-benzoyl-propionamide was admixed with chicken feed at concentrations of 1.0 ppm, 7.5 ppm and 15 ppm. A 21-day battery study was conducted with the NMBP-containing feed. One group of controls was unmedicated, while a second control group received Bacitracin MD in its feed at 30 g/ton. The birds were fed ad libitum and weighed on days 7, 14 and 21. There were 10 birds per replication, 4 replications in controls and 2 replications per drug treatment.

[8] = rat, in vivo, ip, 50 mg/kg
Method: Per os, in the mouse still, the LD50 is above 2000 mg/kg. In the rat, after i.p. treatment with 50 mg/kg there was, within 3 hours from administration, a maximum lowering of the body temperature of 0.6° in respect to the controls treated with the only suspending medium.

[9] = Injection 1 mg/kg i.m. once a week, Day 14
[10] = Injection 1 mg/kg i.m. once a week, Day 28
[11] = Injection 2 mg/kg i.m. once a week, Day 14
[12] = Injection 2 mg/kg i.m. once a week, Day 28

## O=C(CCC(=O)N1CCOCC1)c1ccccc1 [NMBP, N-morpholinyl-β-benzoyl-propionamide]
[1]; Feed 1 mg/kg, Day 0 (baseline)
  Average Weight: 98.9 g
[1]; Feed 1 mg/kg, Day 14
  Average Weight: 462.8 g
  Feed Conversion: 1.38
  Weight Gain: 363.9 g
[1]; Feed 1 mg/kg, Day 28
  Average Weight: 947.6 g
  Feed Conversion: 1.64
  Weight Gain: 848.7 g
[1]; Feed 2 mg/kg, Day 0 (baseline)
  Average Weight: 98.5 g
[1]; Feed 2 mg/kg, Day 14
  Average Weight: 474.3 g
  Feed Conversion: 1.38
  Weight Gain: 375.8 g
[1]; Feed 2 mg/kg, Day 28
  Average Weight: 1013.5 g
  Feed Conversion: 1.56
  Weight Gain: 915.0 g
[1]; Injection 1 mg/kg i.m. once a week, Day 0 (baseline)
  Average Weight: 98.7 g
[1]; [9]
  Average Weight: 460.6 g
  Feed Conversion: 1.37
  Weight Gain: 361.9 g
[1]; [10]
  Average Weight: 938.2 g
  Feed Conversion: 1.61
  Weight Gain: 839.5 g
[1]; Injection 2 mg/kg i.m. once a week, Day 0 (baseline)
  Average Weight: 98.6 g
[1]; [11]
  Average Weight: 456.3 g
  Feed Conversion: 1.38
  Weight Gain: 357.7 g
[1]; [12]
  Average Weight: 971.4 g
  Feed Conversion: 1.56
  Weight Gain: 872.8 g
[2]; i.p.
  LD50, safe limits: 648 to 1363 mg/kg
[2]; ip
  LD50: 940 mg/kg
[2]; po, per os
  LD50: > 2000 mg/kg
[3]; controls +0.011
  organ weight variation, suprarenal gland: +0.011%
[3]; controls +0.257
  organ weight variation, heart: +0.304%
[3]; controls +0.598
  organ weight variation, lung: +0.675%
[3]; controls +0.65
  organ weight variation, kidney: +0.71%
[3]; controls +3.22
  organ weight variation, liver: +3.63%
[4]
  improvement of average daily gain as compared with controls: about 10%
  improvement of feed-to-gain ratio as compared with controls: about 4%
[4]; control 0.867
  average daily gain (ADG): 0.958 kg
[4]; control 2.76
  average daily feed consumption (ADF): 2.96 kg
[4]; control 3.18
  feed-to-gain ratio (F/G): 3.03
[5]; feed 2.5 ppm, D + 7
  Feed Conversion: 1.67
  Weight Gain: 256 g
[5]; feed 2.5 ppm, D + 14
  Feed Conversion: 1.98
  Weight Gain: 526 g
[5]; feed 2.5 ppm, D + 21
  Feed Conversion: 1.70
  Weight Gain: 1075 g
[5]; feed 2.5 ppm
  Mortality: 1.4
[5]; feed 5.0 ppm, D + 7
  Feed Conversion: 1.65
  Weight Gain: 262 g
[5]; feed 5.0 ppm, D + 14
  Feed Conversion: 2.02
  Weight Gain: 523 g
[5]; feed 5.0 ppm, D + 21
  Feed Conversion: 1.71
  Weight Gain: 1027 g
[5]; feed 5.0 ppm
  Mortality: .8
[6]
  electrocardiographic variations compared to the controls: no electrocardiographic variations
[7]; feed 1 ppm, Day 7
  F/G: 1.38
  Weight Gain: 341 g
[7]; feed 1 ppm, Day 14
  F/G: 1.47
  Weight Gain: 715 g
[7]; feed 1 ppm, Day 21
  F/G: 1.62
  Weight Gain: 1152 g
[7]; feed 7.5 ppm, Day 7
  F/G: 1.40
  Weight Gain: 325 g
[7]; feed 7.5 ppm, Day 14
  F/G: 1.49
  Weight Gain: 697 g
[7]; feed 7.5 ppm, Day 21
  F/G: 1.60
  Weight Gain: 1113 g
[7]; feed 15 ppm, Day 7
  F/G: 1.42
  Weight Gain: 318 g
[7]; feed 15 ppm, Day 14
  F/G: 1.47
  Weight Gain: 688 g
[7]; feed 15 ppm, Day 21
  F/G: 1.54
  Weight Gain: 1164 g
[8]
  maximum lowering of the body temperature in respect to the controls: 0.6 °

— patent US4950669A, “Methods and compositions for promoting growth of animals” (priority 1987, dated 1990)
